Measurements taken from the supplement of paper PMC9663587.

How the values were obtained:
[1] = compound: CCc1cnn2c(NCc3ccc[n+]([O-])c3)cc(N3CCCC[C@H]3CCO)nc12; assay: increase in dead-cell fraction, 72 h; higher = more death;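 note: breast cancer cell lines in 384-well plates, stained with Hoechst plus LIVE/DEAD far red dye and imaged, cells above an LDR intensity threshold counted dead, Hoechst-negative corpses included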
Neratinib/HKI272 [2] = compound: T1, CCOc1cc2ncc(C#N)c(Nc3ccc(OCc4ccccn4)c(Cl)c3)c2cc1NC(=O)/C=C/CN(C)C [Neratinib/HKI272]; assay: as above
THZ531 [3] = compound: T2, CN(C)C/C=C/C(=O)Nc1ccc(C(=O)N2CCC[C@@H](Nc3ncc(Cl)c(-c4c[nH]c5ccccc45)n3)C2)cc1 [THZ531]; assay: as above
BSJ-03-123 [4] = compound: T3, CC(=O)c1c(C)c2cnc(Nc3ccc(N4CCN(CCOCCOCCOCCNC(=O)COc5cccc6c5C(=O)N(C5CCC(=O)NC5=O)C6=O)CC4)cn3)nc2n(C2CCCC2)c1=O [BSJ-03-123]; assay: as above
THZ1 = compound: CN(C)C/C=C/C(=O)Nc1ccc(C(=O)Nc2cccc(Nc3ncc(Cl)c(-c4c[nH]c5ccccc45)n3)c2)cc1 [THZ1]; assay: as above
YKL-5-124 = compound: C=CC(=O)Nc1ccc(C(=O)Nc2[nH]nc3c2CN(C(=O)N[C@H](CN(C)C)c2ccccc2)C3(C)C)cc1 [YKL-5-124]; assay: as above
BSJ-01-175 = compound: CN(C)C/C=C/C(=O)Nc1ccc(O[C@@H]2CCC[C@@H](Nc3ncc(Cl)c(-c4c[nH]c5ccccc45)n3)C2)cc1 [BSJ-01-175]
Dasatinib = compound: Cc1nc(Nc2ncc(C(=O)Nc3c(C)cccc3Cl)s2)cc(N2CCN(CCO)CC2)n1 [Dasatinib]
Doxorubicin = compound: COc1cccc2c1C(=O)c1c(O)c3c(c(O)c1C2=O)C[C@@](O)(C(=O)CO)C[C@@H]3O[C@H]1C[C@H](N)[C@H](O)[C@H](C)O1 [Doxorubicin]
AZD2014 = compound: CNC(=O)c1cccc(-c2ccc3c(N4CCOC[C@@H]4C)nc(N4CCOC[C@@H]4C)nc3n2)c1 [AZD2014]
[5] = compound: CC(=O)c1c(C)c2cnc(Nc3ccc(N4CCNCC4)cn3)nc2n(C2CCCC2)c1=O
Neratinib/HKI272 [6] = compound: T1, Neratinib/HKI272
Volasertib/BI6727 = compound: CC[C@@H]1C(=O)N(C)c2cnc(Nc3ccc(C(=O)N[C@H]4CC[C@H](N5CCN(CC6CC6)CC5)CC4)cc3OC)nc2N1C(C)C [Volasertib/BI6727]
Taselisib/GDC0032 = compound: Cc1nc(-c2cn3c(n2)-c2ccc(-c4cnn(C(C)(C)C(N)=O)c4)cc2OCC3)n(C(C)C)n1 [Taselisib/GDC0032]
[7] = compound: CO[C@@H](C)Cn1c(=O)n(C)c2cnc3ccc(-c4cncc(C(C)(C)O)c4)cc3c21
Rucaparib = compound: CNCc1ccc(-c2[nH]c3cc(F)cc4c3c2CCNC4=O)cc1 [Rucaparib]
THZ531 [8] = compound: T2, THZ531
BSJ-03-123 [9] = compound: T3, BSJ-03-123
[10] = compound: CC(=O)Nc1cccc(-n2c(=O)n(C3CC3)c(=O)c3c(Nc4ccc(I)cc4F)n(C)c(=O)c(C)c32)c1
Ceritinib/LDK378 = compound: Cc1cc(Nc2ncc(Cl)c(Nc3ccccc3S(=O)(=O)C(C)C)n2)c(OC(C)C)cc1C1CCNCC1 [Ceritinib/LDK378]
Vorinostat = compound: O=C(CCCCCCC(=O)Nc1ccccc1)NO [Vorinostat]
INK128/MLN0128 = compound: CC(C)n1nc(-c2ccc3oc(N)nc3c2)c2c(N)ncnc21 [INK128/MLN0128]
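Throughout, for GR50, 72 h: breast cancer and non-malignant breast epithelial cell lines, Deep Dye Drop or Dye Drop imaging, nine half-log doses, GR normalized to time-zero plates and DMSO-only controls.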

## PDX1258
[1]; 0.0001 µM
  increase in dead-cell fraction: -0.0003
[1]; 0.0003162 µM
  increase in dead-cell fraction: -0.0056
[1]; 0.001 µM
  increase in dead-cell fraction: -0.0037
[1]; 0.003162 µM
  increase in dead-cell fraction: 0.0067
[1]; 0.01 µM
  increase in dead-cell fraction: 0.0568
[1]; 0.03162 µM
  increase in dead-cell fraction: 0.537
[1]; 0.1 µM
  increase in dead-cell fraction: 0.662
[1]; 0.3162 µM
  increase in dead-cell fraction: 0.643
[1]; 1 µM
  increase in dead-cell fraction: 0.658
Neratinib/HKI272 [2]; 0.0003162 µM
  increase in dead-cell fraction: 0.0046
Neratinib/HKI272 [2]; 0.001 µM
  increase in dead-cell fraction: 0.0126
Neratinib/HKI272 [2]; 0.003162 µM
  increase in dead-cell fraction: 0.0014
Neratinib/HKI272 [2]; 0.01 µM
  increase in dead-cell fraction: -0.0047
Neratinib/HKI272 [2]; 0.03162 µM
  increase in dead-cell fraction: 0.0084
Neratinib/HKI272 [2]; 0.1 µM
  increase in dead-cell fraction: 0.0159
Neratinib/HKI272 [2]; 0.3162 µM
  increase in dead-cell fraction: 0.0244
Neratinib/HKI272 [2]; 1 µM
  increase in dead-cell fraction: 0.0372
Neratinib/HKI272 [2]; 3.162 µM
  increase in dead-cell fraction: 0.118
THZ531 [3]; 0.0001 µM
  increase in dead-cell fraction: 0.0134
THZ531 [3]; 0.0003162 µM
  increase in dead-cell fraction: -0.0091
THZ531 [3]; 0.001 µM
  increase in dead-cell fraction: -0.0052
THZ531 [3]; 0.003162 µM
  increase in dead-cell fraction: -0.0071
THZ531 [3]; 0.01 µM
  increase in dead-cell fraction: -0.0127
THZ531 [3]; 0.03162 µM
  increase in dead-cell fraction: 0.0327
THZ531 [3]; 0.1 µM
  increase in dead-cell fraction: 0.239
THZ531 [3]; 0.3162 µM
  increase in dead-cell fraction: 0.246
THZ531 [3]; 1 µM
  increase in dead-cell fraction: 0.27
BSJ-03-123 [4]; 0.001 µM
  increase in dead-cell fraction: -0.0086
BSJ-03-123 [4]; 0.003162 µM
  increase in dead-cell fraction: 0.027
BSJ-03-123 [4]; 0.01 µM
  increase in dead-cell fraction: -0.004
BSJ-03-123 [4]; 0.03162 µM
  increase in dead-cell fraction: -0.0154
BSJ-03-123 [4]; 0.1 µM
  increase in dead-cell fraction: 0.0044
BSJ-03-123 [4]; 0.3162 µM
  increase in dead-cell fraction: -0.0026
BSJ-03-123 [4]; 1 µM
  increase in dead-cell fraction: -0.001
BSJ-03-123 [4]; 3.162 µM
  increase in dead-cell fraction: -0.0102
BSJ-03-123 [4]; 10 µM
  increase in dead-cell fraction: 0.284
THZ1; 0.0001 µM
  increase in dead-cell fraction: -0.0269
THZ1; 0.0003162 µM
  increase in dead-cell fraction: 0.0089
THZ1; 0.001 µM
  increase in dead-cell fraction: -0.01
THZ1; 0.003162 µM
  increase in dead-cell fraction: -0.0015
THZ1; 0.01 µM
  increase in dead-cell fraction: 0.0153
THZ1; 0.03162 µM
  increase in dead-cell fraction: 0.188
THZ1; 0.1 µM
  increase in dead-cell fraction: 0.237
THZ1; 0.3162 µM
  increase in dead-cell fraction: 0.304
THZ1; 1 µM
  increase in dead-cell fraction: 0.398
YKL-5-124; 0.001 µM
  increase in dead-cell fraction: 0.019
YKL-5-124; 0.003162 µM
  increase in dead-cell fraction: 0.0602
YKL-5-124; 0.01 µM
  increase in dead-cell fraction: 0.0734
YKL-5-124; 0.03162 µM
  increase in dead-cell fraction: 0.107
YKL-5-124; 0.1 µM
  increase in dead-cell fraction: 0.033
YKL-5-124; 0.3162 µM
  increase in dead-cell fraction: 0.165
YKL-5-124; 1 µM
  increase in dead-cell fraction: 0.153
YKL-5-124; 3.162 µM
  increase in dead-cell fraction: 0.153
YKL-5-124; 10 µM
  increase in dead-cell fraction: 0.298
BSJ-01-175
  GR50, 72 h: 0.00362 µM
Dasatinib
  GR50, 72 h: 0.0216 µM
Doxorubicin
  GR50, 72 h: 0.00914 µM
AZD2014
  GR50, 72 h: 0.401 µM
[5]
  GR50, 72 h: > 3.16 µM
Neratinib/HKI272 [6]
  GR50, 72 h: 1.1 µM
Volasertib/BI6727
  GR50, 72 h: 0.00743 µM
Taselisib/GDC0032
  GR50, 72 h: 0.996 µM
[7]
  GR50, 72 h: 0.0944 µM
Rucaparib
  GR50, 72 h: > 10 µM
THZ531 [8]
  GR50, 72 h: 0.0492 µM
BSJ-03-123 [9]
  GR50, 72 h: 4.91 µM
[10]
  GR50, 72 h: > 1 µM
Ceritinib/LDK378
  GR50, 72 h: 2.08 µM
Vorinostat
  GR50, 72 h: 1.57 µM
INK128/MLN0128
  GR50, 72 h: 0.044 µM

## EFM19
[1]; 0.0001 µM
  increase in dead-cell fraction: -0.0077
[1]; 0.0003162 µM
  increase in dead-cell fraction: -0.0011
[1]; 0.001 µM
  increase in dead-cell fraction: -0.006
[1]; 0.003162 µM
  increase in dead-cell fraction: -0.0052
[1]; 0.01 µM
  increase in dead-cell fraction: -0.0076
[1]; 0.03162 µM
  increase in dead-cell fraction: 0.0197
[1]; 0.1 µM
  increase in dead-cell fraction: 0.148
[1]; 0.3162 µM
  increase in dead-cell fraction: 0.323
[1]; 1 µM
  increase in dead-cell fraction: 0.478
Neratinib/HKI272 [2]; 0.0003162 µM
  increase in dead-cell fraction: -0.0049
Neratinib/HKI272 [2]; 0.001 µM
  increase in dead-cell fraction: -0.0044
Neratinib/HKI272 [2]; 0.003162 µM
  increase in dead-cell fraction: -0.0012
Neratinib/HKI272 [2]; 0.01 µM
  increase in dead-cell fraction: -0.0052
Neratinib/HKI272 [2]; 0.03162 µM
  increase in dead-cell fraction: -0.0028
Neratinib/HKI272 [2]; 0.1 µM
  increase in dead-cell fraction: -0.0038
Neratinib/HKI272 [2]; 0.3162 µM
  increase in dead-cell fraction: -0.0011
Neratinib/HKI272 [2]; 1 µM
  increase in dead-cell fraction: -0.0033
Neratinib/HKI272 [2]; 3.162 µM
  increase in dead-cell fraction: 0.0028
THZ531 [3]; 0.0001 µM
  increase in dead-cell fraction: -0.0038
THZ531 [3]; 0.0003162 µM
  increase in dead-cell fraction: -0.0067
THZ531 [3]; 0.001 µM
  increase in dead-cell fraction: -0.005
THZ531 [3]; 0.003162 µM
  increase in dead-cell fraction: -0.0057
THZ531 [3]; 0.01 µM
  increase in dead-cell fraction: -0.0007
THZ531 [3]; 0.03162 µM
  increase in dead-cell fraction: 0.0062
THZ531 [3]; 0.1 µM
  increase in dead-cell fraction: 0.0006
THZ531 [3]; 0.3162 µM
  increase in dead-cell fraction: -0.0035
THZ531 [3]; 1 µM
  increase in dead-cell fraction: 0.527
BSJ-03-123 [4]; 0.001 µM
  increase in dead-cell fraction: -0.0051
BSJ-03-123 [4]; 0.003162 µM
  increase in dead-cell fraction: -0.0117
BSJ-03-123 [4]; 0.01 µM
  increase in dead-cell fraction: 0.001
BSJ-03-123 [4]; 0.03162 µM
  increase in dead-cell fraction: 0.0013
BSJ-03-123 [4]; 0.1 µM
  increase in dead-cell fraction: -0.0048
BSJ-03-123 [4]; 0.3162 µM
  increase in dead-cell fraction: -0.0048
BSJ-03-123 [4]; 1 µM
  increase in dead-cell fraction: 0.009
BSJ-03-123 [4]; 3.162 µM
  increase in dead-cell fraction: 0.0049
BSJ-03-123 [4]; 10 µM
  increase in dead-cell fraction: 0.0309
THZ1; 0.0001 µM
  increase in dead-cell fraction: -0.004
THZ1; 0.0003162 µM
  increase in dead-cell fraction: -0.0048
THZ1; 0.001 µM
  increase in dead-cell fraction: -0.0107
THZ1; 0.003162 µM
  increase in dead-cell fraction: -0.0093
THZ1; 0.01 µM
  increase in dead-cell fraction: -0.0068
THZ1; 0.03162 µM
  increase in dead-cell fraction: -0.0102
THZ1; 0.1 µM
  increase in dead-cell fraction: -0.002
THZ1; 0.3162 µM
  increase in dead-cell fraction: 0.0031
THZ1; 1 µM
  increase in dead-cell fraction: 0.215
YKL-5-124; 0.001 µM
  increase in dead-cell fraction: 0.0076
YKL-5-124; 0.003162 µM
  increase in dead-cell fraction: 0.0133
YKL-5-124; 0.01 µM
  increase in dead-cell fraction: 0.0465
YKL-5-124; 0.03162 µM
  increase in dead-cell fraction: 0.0193
YKL-5-124; 0.1 µM
  increase in dead-cell fraction: 0.0243
YKL-5-124; 0.3162 µM
  increase in dead-cell fraction: 0.0368
YKL-5-124; 1 µM
  increase in dead-cell fraction: 0.0396
YKL-5-124; 3.162 µM
  increase in dead-cell fraction: 0.0167
YKL-5-124; 10 µM
  increase in dead-cell fraction: 0.0439
BSJ-01-175
  GR50, 72 h: 1.51 µM
Dasatinib
  GR50, 72 h: 0.0184 µM
Doxorubicin
  GR50, 72 h: 0.0513 µM
AZD2014
  GR50, 72 h: 0.00131 µM
[5]
  GR50, 72 h: 0.525 µM
Neratinib/HKI272 [6]
  GR50, 72 h: > 3.16 µM
Volasertib/BI6727
  GR50, 72 h: 0.0101 µM
Taselisib/GDC0032
  GR50, 72 h: 0.00333 µM
[7]
  GR50, 72 h: 0.00381 µM
Rucaparib
  GR50, 72 h: > 10 µM
THZ531 [8]
  GR50, 72 h: 0.466 µM
BSJ-03-123 [9]
  GR50, 72 h: 1.23 µM
[10]
  GR50, 72 h: > 1 µM
Ceritinib/LDK378
  GR50, 72 h: 5.52 µM
Vorinostat
  GR50, 72 h: 2.66 µM
INK128/MLN0128
  GR50, 72 h: 0.00896 µM
